{"source": "patent US20230201342A1", "about": "“USE OF LENVATINIB PLUS ANTI-PD-1 MONOCLONAL ANTIBODY IN PREPARATION OF ANTI-HEPATOMA DRUG” (Guangzhou X Cell Therapy Biomedical Tech Co., Ltd, priority 2021, published 2023)", "key": {"[1]": {"test_system": "mouse hepatoma cells (Hepa1-6) xenograft", "assay": "subcutaneous tumorigenicity assay, tumor size (Example 1)", "format": "in vivo", "method": "3. Detection of the effects of different doses of lenvatinib on hepatoma xenograft by subcutaneous tumorigenicity assay of immunocompetent C57B/L mice. (1) Separately, 1×10^6 mouse hepatoma cells (Hepa1-6) were implanted into the subcutaneous stratum of the armpits of 20 […] mice aged 3-4 weeks. The mice were randomized into four groups: a blank control group, a 3 mg/kg/day lenvatinib group, a 10 mg/kg/day lenvatinib group, and a 30 mg/kg/day lenvatinib group. (2) When the size of the subcutaneous tumor reached 100-200 mm^3: each mouse of the 3 mg/kg/day lenvatinib group was orally administered with 3 mg/kg/day lenvatinib by gastric gavage once a day; each mouse of the 10 mg/kg/day lenvatinib group was orally administered with 10 mg/kg/day lenvatinib by gastric gavage once a day; and each mouse of the 30 mg/kg/day lenvatinib group was orally administered with 30 mg/kg/day lenvatinib by gastric gavage once a day. According to the existing literature, 30 mg/kg was a routine dose of lenvatinib (Selleck) for laboratory mice. (3) The tumor size was measured every two days, and the difference in tumor size was compared among groups."}, "[2]": {"test_system": "CD8-positive T cells in Hepa1-6 tumor tissue", "assay": "flow cytometry of CD45/CD8-positive cells in resected tumor tissue (Example 1)", "format": "in vivo, mouse", "conditions": "10 mg/kg/day, after 3 weeks", "method": "(§1) (1) Separately, 1×10^6 mouse hepatoma cells (Hepa1-6) were implanted into the subcutaneous stratum of the armpits of 20 […] mice aged 3-4 weeks. The mice were randomized into four groups: a blank control group, a 3 mg/kg/day lenvatinib group, a 10 mg/kg/day lenvatinib group, and a 30 mg/kg/day lenvatinib group. (2) When the size of the subcutaneous tumor reached 100-200 mm^3: each mouse of the 3 mg/kg/day lenvatinib group was orally administered with 3 mg/kg/day lenvatinib by gastric gavage once a day; each mouse of the 10 mg/kg/day lenvatinib group was orally administered with 10 mg/kg/day lenvatinib by gastric gavage once a day; and each mouse of the 30 mg/kg/day lenvatinib group was orally administered with 30 mg/kg/day lenvatinib by gastric gavage once a day. According to the existing literature, 30 mg/kg was a routine dose of lenvatinib (Selleck) for laboratory mice. (4) After 3 weeks, the mice were sacrificed, tumor tissues were resected, a part of fresh tumor tissue was separated and ground into a single cell suspension, and the proportion of positive cells labeled with CD45 and CD8 was detected by flow cytometry; meanwhile, the other part of tumor tissue was fixed and embedded, and vascular markers (CD31, α-SMA, and VEGFR2) and CD8-positive T cell infiltration were detected by immunohistochemistry."}, "[3]": {"test_system": "CD31, NG2, CD8 in Hepa1-6 tumor tissue", "assay": "immunohistochemistry of vascular markers and CD8-positive T cell infiltration in tumor tissue (Example 1)", "format": "in vivo, mouse", "method": "as §1"}, "[4]": {"test_system": "mouse hepatoma cells (Hepa1-6) xenograft", "assay": "subcutaneous tumorigenicity assay, lenvatinib plus anti-PD-1 monoclonal antibody (Example 2)", "format": "in vivo", "conditions": "for growth of hepatoma xenograft: oral gavage, 3 weeks", "from_the_text": "Detection of the effects of different doses of lenvatinib plus anti-PD-1 monoclonal antibody on hepatoma xenograft by subcutaneous tumorigenicity assay of immunocompetent C57B/L mice.\n(1) Separately, 1×10^6 mouse hepatoma cells (Hepa1-6) were implanted into the subcutaneous stratum of the armpits of 24 C57B/L mice aged 3-4 weeks. The mice were randomized into six groups: The mice were randomized into six groups: a blank control group, an anti-PD-1 monoclonal antibody alone group, a low-dose lenvatinib group, a high-dose lenvatinib group, a low-dose lenvatinib+anti-PD-1 monoclonal antibody group, and a high-dose lenvatinib+anti-PD-1 monoclonal antibody group.\n(2) When the size of the subcutaneous tumor reached 100-200 mm^3: each mouse of the anti-PD-1 monoclonal antibody alone group was intraperitoneally administered with 200 μg of anti-PD-1 monoclonal antibody every three days; each mouse of the low-dose lenvatinib group was orally administered with 10 mg/kg/day lenvatinib by gastric gavage once a day; each mouse of the high-dose lenvatinib group was orally administered with 30 mg/kg/day lenvatinib by gastric gavage once a day; each mouse of the low-dose lenvatinib group+anti-PD-1 monoclonal antibody was orally administered with 10 mg/kg/day lenvatinib by gastric gavage once a day and intraperitoneally administered with 200 μg of anti-PD-1 monoclonal antibody every three days; and each mouse of the high-dose lenvatinib group+anti-PD-1 monoclonal antibody was orally administered with 30 mg/kg/day lenvatinib by gastric gavage once a day and intraperitoneally administered with 200 μg of anti-PD-1 monoclonal antibody every three days.\n(4) After 3 weeks, the mice were sacrificed, and data statistics and reduction were conducted."}}}
{"smiles": "COc1cc2nccc(Oc3ccc(NC(=O)NC4CC4)c(Cl)c3)c2cc1C(N)=O", "note": "[lenvatinib]", "values": [{"measurement": "difference in tumor growth among the three dose groups", "setting": "[1]; 3 vs 10 vs 30 mg/kg/day lenvatinib", "value": "no significant difference"}, {"measurement": "growth of hepatoma xenograft (tumor size)", "setting": "[1]; all three doses 3, 10, 30 mg/kg/day, oral gavage once a day, 3 weeks", "value": "inhibit the growth of hepatoma xenograft"}, {"measurement": "percentage of CD8-positive T cells in the tumor tissue", "setting": "[2]", "value": "significantly increased"}, {"measurement": "infiltrating CD8-positive T cells in the tumor tissue", "setting": "[3]; 10 mg/kg/day", "value": "significantly increased"}, {"measurement": "expression of peripheral cell marker molecule NG2", "setting": "[3]; 10 mg/kg/day only", "value": "upregulation"}, {"measurement": "vascular normalization in tumor tissue", "setting": "[3]; 10 mg/kg/day only", "value": "significantly improve vascular normalization"}, {"measurement": "microvessel density (CD31) in hepatoma tissue", "setting": "[3]; all three doses 3, 10, 30 mg/kg/day", "value": "significantly reduce"}, {"measurement": "difference in tumor growth between low-dose and high-dose groups", "setting": "[4]; 10 vs 30 mg/kg/day lenvatinib alone", "value": "no significant difference"}, {"measurement": "growth of hepatoma xenograft", "setting": "[4]; high-dose lenvatinib 30 mg/kg/day", "value": "inhibit the growth of hepatoma xenograft"}, {"measurement": "growth of hepatoma xenograft", "setting": "[4]; low-dose lenvatinib 10 mg/kg/day", "value": "inhibit the growth of hepatoma xenograft"}]}
